In assay [1] the target is Protein kinase C eta type (Homo sapiens) (UniProt P24723). In words: Inhibition of PRKCH (unknown origin) assessed as residual activity at 1000 nM by KINOMEscan analysis relative to control.
Assay [2] deals with Myosin light chain kinase 2, skeletal/cardiac muscle (Homo sapiens) (UniProt Q9H1R3). In words: Inhibition of MYLK2 (unknown origin) assessed as residual activity at 1000 nM by KINOMEscan analysis relative to control.
In assay [3] the test system is Phosphatidylinositol 4,5-bisphosphate 3-kinase catalytic subunit alpha isoform (Homo sapiens), P42336 [C420R]. In words: Inhibition of PIK3CA C420R mutant (unknown origin) assessed as residual activity at 1000 nM by KINOMEscan analysis relative to control.
Assay [4] has as its target Peripheral plasma membrane protein CASK (Homo sapiens) (UniProt O14936). As to the kind of experiment: Inhibition of CASK (unknown origin) assessed as residual activity at 1000 nM by KINOMEscan analysis relative to control.
For assay [5], the target named is Angiopoietin-1 receptor (Homo sapiens) (UniProt Q02763). As to the kind of experiment: Inhibition of TIE2 (unknown origin) assessed as residual activity at 1000 nM by KINOMEscan analysis relative to control.
Assay [6] concerns Mast/stem cell growth factor receptor Kit (Homo sapiens), P10721 [A829P]. In words: Inhibition of KIT A829P mutant (unknown origin) assessed as residual activity at 1000 nM by KINOMEscan analysis relative to control.
Assay [7] concerns the target Serine/threonine-protein kinase 35 (Homo sapiens) (UniProt Q8TDR2). As to the kind of experiment: Inhibition of STK35 (unknown origin) assessed as residual activity at 1000 nM by KINOMEscan analysis relative to control.
Assay [8] has as its target T1, Dual specificity mitogen-activated protein kinase kinase 5 (Homo sapiens) (UniProt Q13163).
T1 sequence (whole entry): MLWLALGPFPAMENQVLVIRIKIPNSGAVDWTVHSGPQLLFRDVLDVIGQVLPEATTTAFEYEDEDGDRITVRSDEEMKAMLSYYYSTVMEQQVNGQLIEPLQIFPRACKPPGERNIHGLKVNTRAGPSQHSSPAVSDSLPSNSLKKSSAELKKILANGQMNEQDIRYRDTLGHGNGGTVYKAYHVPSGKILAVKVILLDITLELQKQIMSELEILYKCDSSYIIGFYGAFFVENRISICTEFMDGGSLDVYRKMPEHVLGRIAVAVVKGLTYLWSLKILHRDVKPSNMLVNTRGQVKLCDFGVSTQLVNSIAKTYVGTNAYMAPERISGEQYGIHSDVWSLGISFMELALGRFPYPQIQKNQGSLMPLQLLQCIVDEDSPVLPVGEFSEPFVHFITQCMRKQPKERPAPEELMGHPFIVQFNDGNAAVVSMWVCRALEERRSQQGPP
In words: Inhibition of MEK5 (unknown origin) assessed as residual activity at 1000 nM by KINOMEscan analysis relative to control.

The subject of assay [9] is Receptor-type tyrosine-protein kinase FLT3 (Homo sapiens), P36888 [D835H]. As to the kind of experiment: Inhibition of FLT3 D835H mutant (unknown origin) assessed as residual activity at 1000 nM by KINOMEscan analysis relative to control.
Assay [10] deals with Serine/threonine-protein kinase PAK 2 (Homo sapiens) (UniProt Q13177). As to the kind of experiment: Inhibition of PAK2 (unknown origin) assessed as residual activity at 1000 nM by KINOMEscan analysis relative to control.
Assay [11] deals with Epidermal growth factor receptor (Homo sapiens), P00533 [UNDEFINED MUTATION]. As to the kind of experiment: Inhibition of EGFR L747-T751del/Sins mutant (unknown origin) assessed as residual activity at 1000 nM by KINOMEscan analysis relative to control.
Assay [12] deals with T2, Serine/threonine-protein kinase D1 (Homo sapiens) (UniProt Q15139).
T2 sequence (whole entry): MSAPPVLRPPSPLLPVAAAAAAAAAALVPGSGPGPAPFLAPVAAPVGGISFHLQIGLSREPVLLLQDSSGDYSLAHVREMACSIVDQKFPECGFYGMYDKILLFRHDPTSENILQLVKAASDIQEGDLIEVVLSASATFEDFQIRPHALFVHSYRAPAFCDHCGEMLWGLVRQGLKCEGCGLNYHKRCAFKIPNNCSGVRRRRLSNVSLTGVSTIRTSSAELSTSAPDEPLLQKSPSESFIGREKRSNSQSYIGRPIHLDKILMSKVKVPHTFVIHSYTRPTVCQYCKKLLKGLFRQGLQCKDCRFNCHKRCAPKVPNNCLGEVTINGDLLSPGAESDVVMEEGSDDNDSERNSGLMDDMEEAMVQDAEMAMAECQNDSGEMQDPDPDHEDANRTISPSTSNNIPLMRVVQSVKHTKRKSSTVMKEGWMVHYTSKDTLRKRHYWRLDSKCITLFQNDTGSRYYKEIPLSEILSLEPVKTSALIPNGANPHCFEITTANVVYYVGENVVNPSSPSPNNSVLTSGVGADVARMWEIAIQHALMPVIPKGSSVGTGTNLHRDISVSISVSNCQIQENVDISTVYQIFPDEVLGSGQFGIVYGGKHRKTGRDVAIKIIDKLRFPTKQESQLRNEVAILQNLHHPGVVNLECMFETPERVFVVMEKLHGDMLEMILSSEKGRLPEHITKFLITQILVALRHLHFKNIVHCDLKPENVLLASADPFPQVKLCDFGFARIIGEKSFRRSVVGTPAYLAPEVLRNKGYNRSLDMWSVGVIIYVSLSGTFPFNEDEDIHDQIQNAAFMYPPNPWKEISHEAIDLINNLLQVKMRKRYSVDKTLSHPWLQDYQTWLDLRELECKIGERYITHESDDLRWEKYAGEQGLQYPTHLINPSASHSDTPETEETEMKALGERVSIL
In words: Inhibition of PRKD1 (unknown origin) assessed as residual activity at 1000 nM by KINOMEscan analysis relative to control.

The target in assay [13] is Ribosomal protein S6 kinase alpha-5 (Homo sapiens) (UniProt O75582). In words: Inhibition of C-terminal RPS6KA5 kinetic domain 2 (unknown origin) assessed as residual activity at 1000 nM by KINOMEscan analysis relative to control.
Sequence of Ribosomal protein S6 kinase alpha-5 (Homo sapiens) (O75582 whole entry, looked up, the tested form may be a part): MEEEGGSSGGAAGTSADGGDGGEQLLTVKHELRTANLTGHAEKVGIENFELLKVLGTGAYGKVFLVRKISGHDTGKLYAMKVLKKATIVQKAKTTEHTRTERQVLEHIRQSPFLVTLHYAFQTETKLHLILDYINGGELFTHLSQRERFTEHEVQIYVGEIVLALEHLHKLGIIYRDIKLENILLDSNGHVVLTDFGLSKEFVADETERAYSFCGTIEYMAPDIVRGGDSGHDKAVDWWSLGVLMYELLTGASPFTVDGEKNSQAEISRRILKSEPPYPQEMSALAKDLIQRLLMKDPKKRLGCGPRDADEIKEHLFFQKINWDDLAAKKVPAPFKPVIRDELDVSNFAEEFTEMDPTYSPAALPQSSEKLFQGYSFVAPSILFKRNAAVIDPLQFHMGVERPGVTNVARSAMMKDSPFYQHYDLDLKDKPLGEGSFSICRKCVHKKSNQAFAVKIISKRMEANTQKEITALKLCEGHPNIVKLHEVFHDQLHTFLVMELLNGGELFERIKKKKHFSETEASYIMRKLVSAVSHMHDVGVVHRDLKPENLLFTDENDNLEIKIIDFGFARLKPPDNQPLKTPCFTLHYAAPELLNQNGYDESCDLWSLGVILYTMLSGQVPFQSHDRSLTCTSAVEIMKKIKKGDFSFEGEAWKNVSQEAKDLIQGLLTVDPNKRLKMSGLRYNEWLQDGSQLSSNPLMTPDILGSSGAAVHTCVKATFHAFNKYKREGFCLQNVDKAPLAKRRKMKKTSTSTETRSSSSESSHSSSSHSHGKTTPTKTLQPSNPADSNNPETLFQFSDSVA

Sequence of Epidermal growth factor receptor (Homo sapiens), P00533 [UNDEFINED MUTATION] (P00533 whole entry, looked up, stated change not applied): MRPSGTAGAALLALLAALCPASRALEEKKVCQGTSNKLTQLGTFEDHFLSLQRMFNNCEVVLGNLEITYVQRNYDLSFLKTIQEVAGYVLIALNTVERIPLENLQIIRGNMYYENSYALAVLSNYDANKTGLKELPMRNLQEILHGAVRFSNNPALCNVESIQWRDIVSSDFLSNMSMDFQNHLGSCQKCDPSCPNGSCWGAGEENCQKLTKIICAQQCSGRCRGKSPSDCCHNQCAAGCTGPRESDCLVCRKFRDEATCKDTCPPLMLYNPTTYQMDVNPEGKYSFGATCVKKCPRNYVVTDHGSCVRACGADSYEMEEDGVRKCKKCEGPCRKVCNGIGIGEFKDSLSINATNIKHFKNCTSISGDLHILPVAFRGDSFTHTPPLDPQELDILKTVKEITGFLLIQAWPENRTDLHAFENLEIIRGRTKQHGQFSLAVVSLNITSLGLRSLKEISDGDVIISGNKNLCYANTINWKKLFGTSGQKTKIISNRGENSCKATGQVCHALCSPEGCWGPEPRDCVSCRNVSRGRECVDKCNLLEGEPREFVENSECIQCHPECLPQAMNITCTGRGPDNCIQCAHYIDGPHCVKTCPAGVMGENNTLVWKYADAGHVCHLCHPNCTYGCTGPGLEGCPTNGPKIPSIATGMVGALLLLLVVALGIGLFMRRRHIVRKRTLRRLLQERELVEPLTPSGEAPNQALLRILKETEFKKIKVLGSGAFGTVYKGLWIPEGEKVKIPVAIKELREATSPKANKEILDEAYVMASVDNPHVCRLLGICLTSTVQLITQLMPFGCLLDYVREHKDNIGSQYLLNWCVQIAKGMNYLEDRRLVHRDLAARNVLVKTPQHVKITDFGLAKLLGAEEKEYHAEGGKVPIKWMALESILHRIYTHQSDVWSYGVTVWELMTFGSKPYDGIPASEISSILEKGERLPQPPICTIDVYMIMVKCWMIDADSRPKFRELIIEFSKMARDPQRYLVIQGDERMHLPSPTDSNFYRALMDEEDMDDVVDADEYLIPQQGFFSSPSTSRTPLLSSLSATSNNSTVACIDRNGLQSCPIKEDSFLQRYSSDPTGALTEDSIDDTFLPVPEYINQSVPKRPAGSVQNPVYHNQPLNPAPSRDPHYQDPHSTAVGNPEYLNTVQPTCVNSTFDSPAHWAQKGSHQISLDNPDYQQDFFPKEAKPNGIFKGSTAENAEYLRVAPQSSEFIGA
Sequence of Serine/threonine-protein kinase 35 (Homo sapiens) (Q8TDR2 whole entry): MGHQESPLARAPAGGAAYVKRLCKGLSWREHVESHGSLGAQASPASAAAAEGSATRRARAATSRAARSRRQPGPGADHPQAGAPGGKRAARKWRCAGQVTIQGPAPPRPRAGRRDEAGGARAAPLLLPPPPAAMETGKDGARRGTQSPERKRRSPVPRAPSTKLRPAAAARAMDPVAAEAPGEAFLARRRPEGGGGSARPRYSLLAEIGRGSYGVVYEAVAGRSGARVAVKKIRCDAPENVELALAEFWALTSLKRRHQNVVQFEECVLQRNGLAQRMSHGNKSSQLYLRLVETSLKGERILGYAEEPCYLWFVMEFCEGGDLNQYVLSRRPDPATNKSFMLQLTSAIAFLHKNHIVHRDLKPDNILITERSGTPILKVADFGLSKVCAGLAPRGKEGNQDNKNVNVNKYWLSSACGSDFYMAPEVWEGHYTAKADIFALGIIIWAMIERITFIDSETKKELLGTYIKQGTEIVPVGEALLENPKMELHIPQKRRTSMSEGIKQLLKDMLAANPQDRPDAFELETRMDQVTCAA
Sequence of Serine/threonine-protein kinase PAK 2 (Homo sapiens) (Q13177 whole entry): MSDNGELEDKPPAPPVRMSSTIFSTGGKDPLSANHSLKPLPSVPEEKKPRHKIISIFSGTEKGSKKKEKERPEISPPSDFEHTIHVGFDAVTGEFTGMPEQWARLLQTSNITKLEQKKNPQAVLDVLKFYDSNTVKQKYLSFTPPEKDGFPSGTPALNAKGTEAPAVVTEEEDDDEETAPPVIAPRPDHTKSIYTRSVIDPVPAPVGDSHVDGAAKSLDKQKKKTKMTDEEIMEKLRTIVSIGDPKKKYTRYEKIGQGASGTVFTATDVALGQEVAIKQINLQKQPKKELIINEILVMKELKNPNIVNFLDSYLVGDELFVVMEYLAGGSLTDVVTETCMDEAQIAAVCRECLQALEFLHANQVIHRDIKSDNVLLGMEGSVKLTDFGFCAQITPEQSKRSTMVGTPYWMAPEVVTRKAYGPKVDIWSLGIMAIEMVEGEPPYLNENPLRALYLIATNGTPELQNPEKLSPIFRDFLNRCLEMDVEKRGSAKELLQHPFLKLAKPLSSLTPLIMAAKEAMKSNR
Sequence of Peripheral plasma membrane protein CASK (Homo sapiens) (O14936 whole entry, looked up): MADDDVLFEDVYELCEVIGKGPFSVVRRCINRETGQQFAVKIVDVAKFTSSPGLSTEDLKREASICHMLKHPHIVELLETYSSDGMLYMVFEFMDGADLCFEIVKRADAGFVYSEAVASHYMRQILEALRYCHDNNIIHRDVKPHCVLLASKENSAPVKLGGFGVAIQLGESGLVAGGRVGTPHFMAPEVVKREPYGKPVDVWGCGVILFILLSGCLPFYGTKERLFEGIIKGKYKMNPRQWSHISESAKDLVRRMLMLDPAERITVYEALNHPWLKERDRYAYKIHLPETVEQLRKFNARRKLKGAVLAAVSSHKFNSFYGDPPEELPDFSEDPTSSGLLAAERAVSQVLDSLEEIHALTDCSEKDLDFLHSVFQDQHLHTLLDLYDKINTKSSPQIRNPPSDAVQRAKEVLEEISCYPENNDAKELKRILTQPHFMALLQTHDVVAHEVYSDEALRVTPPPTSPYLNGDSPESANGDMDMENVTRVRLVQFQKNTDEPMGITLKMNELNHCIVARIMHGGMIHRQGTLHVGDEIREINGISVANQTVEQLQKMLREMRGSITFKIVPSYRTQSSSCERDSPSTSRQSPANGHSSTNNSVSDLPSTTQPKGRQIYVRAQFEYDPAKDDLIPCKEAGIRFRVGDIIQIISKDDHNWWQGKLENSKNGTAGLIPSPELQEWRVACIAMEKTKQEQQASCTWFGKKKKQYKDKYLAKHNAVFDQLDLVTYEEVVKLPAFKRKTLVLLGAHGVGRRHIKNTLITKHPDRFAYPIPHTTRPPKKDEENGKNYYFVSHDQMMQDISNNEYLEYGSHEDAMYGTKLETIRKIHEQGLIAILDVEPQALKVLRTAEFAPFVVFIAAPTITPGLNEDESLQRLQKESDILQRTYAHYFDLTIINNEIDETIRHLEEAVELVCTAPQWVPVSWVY
Sequence of Mast/stem cell growth factor receptor Kit (Homo sapiens), P10721 [A829P] (P10721 whole entry A829P): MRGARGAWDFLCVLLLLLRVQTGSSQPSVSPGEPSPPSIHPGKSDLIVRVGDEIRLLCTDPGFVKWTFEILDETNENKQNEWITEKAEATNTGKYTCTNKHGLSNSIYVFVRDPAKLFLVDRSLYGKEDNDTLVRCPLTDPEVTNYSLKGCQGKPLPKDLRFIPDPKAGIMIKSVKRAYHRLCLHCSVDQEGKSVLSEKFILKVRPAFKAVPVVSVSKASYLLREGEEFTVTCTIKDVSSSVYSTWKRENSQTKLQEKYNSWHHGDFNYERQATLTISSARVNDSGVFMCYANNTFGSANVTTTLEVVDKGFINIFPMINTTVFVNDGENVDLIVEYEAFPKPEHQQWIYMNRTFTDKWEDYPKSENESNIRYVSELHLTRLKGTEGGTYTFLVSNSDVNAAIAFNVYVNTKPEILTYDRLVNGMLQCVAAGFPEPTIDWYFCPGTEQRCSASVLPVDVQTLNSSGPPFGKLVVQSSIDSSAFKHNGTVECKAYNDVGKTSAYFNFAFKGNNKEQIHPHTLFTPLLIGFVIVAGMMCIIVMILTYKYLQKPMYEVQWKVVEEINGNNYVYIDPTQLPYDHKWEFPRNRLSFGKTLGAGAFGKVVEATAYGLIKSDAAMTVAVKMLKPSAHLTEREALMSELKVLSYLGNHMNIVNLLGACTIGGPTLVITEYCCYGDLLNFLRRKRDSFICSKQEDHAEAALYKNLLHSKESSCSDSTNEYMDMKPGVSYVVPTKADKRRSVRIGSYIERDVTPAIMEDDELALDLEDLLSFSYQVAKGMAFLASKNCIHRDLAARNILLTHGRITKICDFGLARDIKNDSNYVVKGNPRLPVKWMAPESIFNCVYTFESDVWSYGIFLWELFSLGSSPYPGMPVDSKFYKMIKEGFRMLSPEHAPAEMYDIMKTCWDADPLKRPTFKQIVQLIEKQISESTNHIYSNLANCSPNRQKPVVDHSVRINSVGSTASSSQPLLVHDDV

For the compound `COc1cc2nc(C)nc(N[C@H](C)c3cccc(-c4cn[nH]c4)c3)c2cc1OC`, the Activity in assay [1] turned out to be 95%; in [2], 73%; in [3], 82%; in [4], 78%; in [5], 81%; in assay [6], 93%. Besides, the Activity is 92% in assay [7]; 61% in assay [8]; 100% in assay [9]; 67% in [10]; 99% in [11]; 85% in [12]. For the same compound, in [13], the Activity amounted to 100%.

Consider `COc1cc2ncnc(N[C@H](C)c3cccc4ccccc34)c2cc1OC`, for which the Activity in assay [1] came to 100%; in assay [2], 100%; in assay [3], 82%; in [4] it was 72%; in assay [5], 100%; in [6], 94%. For the same compound, the Activity in assay [7] is 100%; in [8], 89%; in assay [9], 96%; in assay [10] it was 82%; in assay [11] it was 5.8%; in assay [12] it was 95%. The Activity in assay [13] worked out at 92%.

(Values after ChEMBL document CHEMBL5678818, “Discovery of potent SOS1 inhibitors that block RAS activation via disruption of the RAS-SOS1 interaction” (Proc Natl Acad Sci U S A, 2019).)
